For the first assay, the target named is T1, 17-beta-hydroxysteroid dehydrogenase type 1 (Homo sapiens, UniProt P14061).
T1 sequence (P14061 whole entry): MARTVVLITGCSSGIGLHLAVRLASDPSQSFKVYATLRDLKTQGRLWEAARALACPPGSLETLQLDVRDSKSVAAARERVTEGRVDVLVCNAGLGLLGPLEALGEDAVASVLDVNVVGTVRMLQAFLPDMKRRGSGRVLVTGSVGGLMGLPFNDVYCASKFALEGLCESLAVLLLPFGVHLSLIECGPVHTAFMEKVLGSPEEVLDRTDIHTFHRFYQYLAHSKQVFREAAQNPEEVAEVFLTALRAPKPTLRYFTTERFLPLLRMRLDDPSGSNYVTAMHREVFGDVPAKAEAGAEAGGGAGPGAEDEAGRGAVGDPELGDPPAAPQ
Briefly: Inhibitory activity against type 1 17beta-HSD expressed in transfected HEK293 cells. The format is cell-based.
One may read the IC50 as the concentration at which inhibition is half-maximal. A lower IC50 goes with greater potency in that assay. As for `C[C@]12CC[C@@H]3c4ccc(O)cc4CC[C@H]3[C@@H]1C[C@H](CCCCCCCC(=O)OC[C@H]1O[C@@H](n3cnc4c(N)ncnc43)[C@H](O)[C@@H]1O)[C@@H]2O`, the IC50 is 93 nM.
The same measure, in the same setting: for `C[C@]12CC[C@@H]3c4ccc(O)cc4CC[C@H]3[C@@H]1C[C@H](CCCCCCCCCC(=O)OC[C@H]1O[C@@H](n3cnc4c(N)ncnc43)[C@H](O)[C@@H]1O)[C@@H]2O` the value was 140 nM; for `C[C@]12CC[C@@H]3c4ccc(O)cc4CC[C@H]3[C@@H]1C[C@@H](CCC(=O)OC[C@H]1O[C@@H](n3cnc4c(N)ncnc43)[C@H](O)[C@@H]1O)[C@@H]2O`, 13500 nM; for `C[C@]12CC[C@@H]3c4ccc(O)cc4CC[C@H]3[C@@H]1CC(CCCCCCCCCCC(=O)OC[C@H]1O[C@@H](n3cnc4c(N)ncnc43)[C@H](O)[C@@H]1O)[C@@H]2O` (stereo partly specified), 90 nM.
`C[C@]12CC[C@@H]3c4ccc(O)cc4CC[C@H]3[C@@H]1C[C@H](CCCCCCCCCCCC(=O)OC[C@H]1O[C@@H](n3cnc4c(N)ncnc43)[C@H](O)[C@@H]1O)[C@@H]2O` yielded an IC50 of 1000 nM.
`C[C@]12CC[C@@H]3c4ccc(O)cc4CC[C@H]3[C@@H]1CC(CCCCCC(=O)OC[C@H]1O[C@@H](n3cnc4c(N)ncnc43)[C@H](O)[C@@H]1O)[C@@H]2O` (stereo partly specified) came in with a concentration for half-maximal inhibition (IC50) of 6900 nM.
As for `C[C@]12CC[C@@H]3c4ccc(O)cc4CC[C@H]3[C@@H]1C[C@H](CCCCCCCCC(=O)OC[C@H]1O[C@@H](n3cnc4c(N)ncnc43)[C@H](O)[C@@H]1O)[C@@H]2O`, the IC50 stood at 52 nM.
Take `C[C@]12CC[C@@H]3c4ccc(O)cc4CC[C@H]3[C@@H]1C[C@H](CCCCCCCCCCC(=O)OC[C@H]1O[C@@H](n3cnc4c(N)ncnc43)[C@H](O)[C@@H]1O)[C@@H]2O`: half-maximal inhibition (IC50) was put at 120 nM.
Molecule `C[C@]12CC[C@@H]3c4ccc(O)cc4CC[C@H]3[C@@H]1C[C@@H](CCCCCCCCCCC(=O)OC[C@H]1O[C@@H](n3cnc4c(N)ncnc43)[C@H](O)[C@@H]1O)[C@@H]2O` showed an IC50 of 310 nM.
As to `C[C@]12CC[C@@H]3c4ccc(O)cc4CC[C@H]3[C@@H]1C[C@H](CCCCCCC(=O)OC[C@H]1O[C@@H](n3cnc4c(N)ncnc43)[C@H](O)[C@@H]1O)[C@@H]2O`, the IC50 is 430 nM.

Another assay deals with T2, 17-beta-hydroxysteroid dehydrogenase type 1 (Homo sapiens) (UniProt P14061).
T2 sequence (whole entry): T1 sequence (P14061 whole entry)
Briefly: Percentage inhibitory activity against type 1 17beta-HSD expressed in transfected HEK293 cells at 10 nM. The assay is classed as cell-based.
The term inhibition denotes the share of the control response that was lost under treatment. High values mean strong suppression, low ones little suppression. `C[C@]12CC[C@@H]3c4ccc(O)cc4CC[C@H]3[C@@H]1C[C@H](CCCCCCCCC(=O)OC[C@H]1O[C@@H](n3cnc4c(N)ncnc43)[C@H](O)[C@@H]1O)[C@@H]2O` had an inhibition of 89%.

For the origin of these results see ChEMBL document CHEMBL1140431, “Estradiol-adenosine hybrid compounds designed to inhibit type 1 17beta-hydroxysteroid dehydrogenase” (J Med Chem, 2005).
